Results on 32 compounds are retold here after patent US6924251B1, “Substituted benzoylcyclohexandiones” (Bayer Aktiengesellschaft, priority 1998, dated 2005).

The nature of the data set: logP determination by HPLC (reversed-phase C18), EEC Directive 79/831 Annex V.A8. To be noted: Table 3, compounds of formula (IV); labelled a): acidic range, 0.1% aqueous phosphoric acid, acetonitrile, linear gradient 10% to 90% acetonitrile; 43° C.

Consider `CCOc1nn(Cc2c(Cl)ccc(C(=O)OC)c2Cl)c(=O)n1C` [IV-4], for which the logP result is “m.p.: 120 °C logP = 2.38^a)”.

`CCOC(=O)c1ccc(C(F)(F)F)cc1Cn1nc(C)oc1=O` [IV-92]: the logP entry is on record as “logP = 3.04^a)”.

With `CCOC(=O)c1ccc(Br)cc1Cn1nc2n(c1=O)CCC2` [IV-68], the logP result is listed as “logP = 2.16^a)”.

For `CCOC(=O)c1ccc(Br)cc1Cn1nc(C)oc1=O` [IV-73], the logP result is “logP = 2.88^a)”.

With `COC(=O)c1ccc(Cl)c(Cn2ncn(C)c2=O)c1Cl` [IV-10], the logP result is “m.p.: 158 °C logP = 1.55^a)”.

For `COC(=O)c1ccc(Cl)c(Cn2nc(C3CC3)n(C)c2=O)c1Cl` [IV-11], the logP result is “m.p.: 106 °C logP = 2.16^a)”.

As for `CCOC(=O)c1ccc(F)cc1Cn1nc(COC)n(C)c1=O` [IV-96], the logP result was “logP = 2.05^a)”.

On to `COC(=O)c1ccc(Cl)c(Cn2nc(OC(C)C)n(C)c2=O)c1Cl` [IV-7], for which the logP result is “m.p.: 68 °C logP = 2.73^a)”.

Consider `CCOC(=O)c1ccc(C(F)(F)F)cc1CN1N=C(C)C(C)(C)C1=O` [IV-99], for which the logP entry is on record as “logP = 2.91^a)”.

With `CCOC(=O)c1ccc(Br)cc1Cn1nc(Br)n(C)c1=O` [IV-75], the logP entry is given as “logP = 2.80^a)”.

As for `COC(=O)c1ccc(Cl)c(Cn2nc(SC)n(C3CC3)c2=O)c1Cl` [IV-19], the logP entry is “m.p.: 131 °C logP = 2.70^a)”.

As for `COC(=O)c1ccc(Cl)c(CN2CCN(C)C2=O)c1Cl` [IV-23], the logP result was “logP = 1.98^a)”.

For the compound `COC(=O)c1ccc(Cl)c(Cn2nc(C)n(C)c2=O)c1Cl` [IV-13], the logP entry is “m.p.: 146 °C logP = 1.65^a)”.

As to `CCOC(=O)c1ccc(C(F)(F)F)cc1Cn1nc(CC)n(OCC)c1=O` [IV-48], the logP entry was “logP = 3.38^a)”.

Turning to `CCOC(=O)c1ccc(Br)cc1Cn1nc(SC)n(C)c1=O` [IV-80], the logP entry was “logP = 2.86^a)”.

In the case of `CCOC(=O)c1ccc(Br)cc1Cn1nc(OCC(F)(F)F)n(C)c1=O` [IV-67], the logP result is listed as “logP = 3.31^a)”.

Take `COC(=O)c1ccc(Cl)c(Cn2nc(Br)n(C)c2=O)c1Cl` [IV-9]: the logP result was “m.p.: 164 °C logP = 2.18^a)”.

In the case of `CCCOC(=O)c1ccc(C(F)(F)F)cc1Cn1nc(OCC)n(C2CC2)c1=O` [IV-50], the logP entry is given as “logP = 3.91^a)”.

Turning to `CCCOc1nn(Cc2cc(F)ccc2C(=O)OCC)c(=O)n1C` [IV-95], the logP result is reported as “logP = 2.96^a)”.

In the case of `CCOC(=O)c1ccc(Br)cc1Cn1nc(N(C)C)n(C)c1=O` [IV-82], the logP result is “logP = 2.60^a)”.

Turning to `CCOc1nn(Cc2cc(I)ccc2C(=O)OC)c(=O)n1C` [IV-116], the logP result is given as “logP = 2.68^a)”.

Take `COC(=O)c1ccc(Cl)c(CN2C(=O)c3ccccc3S2(=O)=O)c1Cl` [IV-25]: the logP result is “m.p.: 157 °C logP = 2.94^a)”.

In the case of `CCOC(=O)c1ccc(C(F)(F)F)cc1Cn1nc(Br)n(C)c1=O` [IV-119], the logP result was “logP = 2.96^a)”.

On to `CCOC(=O)c1ccc(C(F)(F)F)cc1Cn1nc(OCC)n(C2CC2)c1=O` [IV-47], for which the logP result was “logP = 3.48^a)”.

As for `CCOC(=O)c1ccc(C(F)(F)F)cc1Cn1nc(OCC(F)(F)F)n(C)c1=O` [IV-93], the logP result is recorded as “logP = 3.45^a)”.

Turning to `COC(=O)c1ccc(Cl)c(Cn2nc(N(C)C)n(C)c2=O)c1Cl` [IV-12], the logP entry was “m.p.: 126 °C logP = 2.11^a)”.

Take `CCOC(=O)c1ccc(Br)cc1Cn1nc2n(c1=O)CCCC2` [IV-69]: the logP entry is reported as “logP = 2.41^a)”.

As to `CCOc1nn(Cc2c(Cl)ccc(C(=O)OC)c2Cl)c(=O)n1C1CC1` [IV-16], the logP entry is “m.p.: 99 °C logP = 2.73^a)”.

With `CCOC(=O)c1ccc(C(F)(F)F)cc1Cn1nc(Br)n(C2CC2)c1=O` [IV-79], the logP result is “logP = 3.35^a)”.

For the compound `CCOC(=O)c1ccc(Cl)cc1Cn1nc(SC)n(C)c1=O` [IV-81], the logP entry is listed as “logP = 2.83^a)”.

Take `COC(=O)c1ccc(Cl)c(Cn2nc(OC)n(C3CC3)c2=O)c1Cl` [IV-15]: the logP result was “m.p.: 97 °C logP = 2.36^a)”.

As to `CCOC(=O)c1ccc(C(F)(F)F)cc1Cn1nc(COC)n(C2CC2)c1=O` [IV-77], the logP entry was “logP = 2.88^a)”.
